# Measurements from article PMC12566511, “The Evaluation of (1R,4R,7R,10R)-α,α′,α″,α‴-Tetramethyl-1,4,7,10-tetraazacyclododecane-1,4,7,10-tetraacetic Acid (DOTMA) as a Chelator for Zirconium-89” (Molecules, 2025).
# Where two headings read alike, the source gives them in different places.
# Tests used:
# [1] = Solubility of the non-radioactive complex in conventional solvents; type: physicochemical; details: every conventional solvent tested
# Description: As with our previous studies and to assist in our understanding of the chemical reactivity of this ligand with ^89Zr, we attempted to characterize the Zr-DOTMA complex. Unfortunately, the synthesis of Zr-DOTMA was problematic. […] This insolubility prevented any rigorous characterization using standard analytical techniques such as solution NMR, mass spectrometry, or single crystal X-ray diffraction analysis. Thus, to provide some characterization data, we completed solid-state NMR of Zr-DOTMA and compared its spectrum with that of the DOTMA ligand (Figures S1 and S2). Briefly, the C-13 spectrum of the DOTMA ligand is composed of four groups of resonances consistent with CH3, CH2, CH, and COO^−. The spectra are assigned as COO^− near 182 ppm, CH at 58 ppm, CH2 centered near 48 ppm, and four methyl resonances near 9.5 ppm. The CH3 is attached to a chiral carbon atom at a stereogenic center. In contrast to the ligand spectra, the Zr-DOTMA spectrum is comprised of a major crystalline phase, apparently with Z’ = 1 having resonances consistent with CH3, CH2, CH, and COO at 11, 47, 66, and 179 ppm, respectively. It also has minor resonances near 52, 62, and 174 ppm. The resonances near 174 are composed of at least three unique carbons but, based on linewidth, appear to be crystalline in nature. The methyl groups are magnetically inequivalent.
# [2] = parameters: method as in PMID 28451334; details: normal mice, cited from earlier work
# [3] = cited from earlier work
compound,measurement,setting,value
"C[C@H](C(=O)[O-])N1CCN([C@H](C)C(=O)[O-])CCN([C@H](C)C(=O)[O-])CCN([C@H](C)C(=O)[O-])CC1.[Zr+4] [Zr-DOTMA, Zirconium (1R,4R,7R,10R)-α,α′,α″,α‴-Tetramethyl-1,4,7,10-tetraazacyclododecane-1,4,7,10-tetraacetic Acid]",solubility (in words),[1],insoluble in every conventional solvent tested
CC(=O)N([O-])CCCCCNC(=O)CCC(=O)N([O-])CCCCCNC(=O)CCC(=O)N([O-])CCCCCN.[89Zr+4] [[^89Zr]Zr-DFO],"bone (72 h p.i., %ID/g ± SD)",[2]; bone,0.079 ± 0.006 %ID/g
same,"kidney (72 h p.i., %ID/g ± SD)",[2]; kidney,0.69 ± 0.09 %ID/g
same,"liver (72 h p.i., %ID/g ± SD)",[2]; liver,0.066 ± 0.009 %ID/g
same,LogP,[3]; previously reported results,−2.83 ± 0.03
O=C([O-])CN1CCN(CC(=O)[O-])CCN(CC(=O)[O-])CCN(CC(=O)[O-])CC1.[89Zr+4] [[^89Zr]Zr-DOTA],LogP,[3]; value reported,−3.80 ± 0.04
O=C([O-])CN1CCN(CC(=O)[O-])Cc2cccc(n2)CN(CC(=O)[O-])CC1.[89Zr+4] [[^89Zr]Zr-PCTA],LogP,[3]; previously reported results,−3.09 ± 0.03
